Measured values as given in patent US6107273A, “Tumor necrosis factor inhibitors” (Thomas Jefferson University, priority 1995, dated 2000).
Values joined by “and” are separate entries in the source; they are usually repeats but may differ in a detail not shown here. Equal entries are not always repeated. Square brackets hold non-standard residues; d marks the D form. Ends that are not written are not given here. Pen = CC(C)(S)[C@H](N)C(=O)O; Aib = CC(C)(N)C(=O)O

Test system: WEHI 164 cells
Test: In vitro cytotoxicity assay: protection of WEHI 164 cells from TNF-α cytotoxicity (AlamarBlue)
Type: cell-based, mouse
Protocol: In vitro cytotoxicity assay Cell line
The murine fibrosarcoma cell line L929 is widely used for testing TNF-α cytotoxicity in vitro. In addition, other cell lines are available that are more sensitive, such as the WEHI 164, a mouse myosarcoma cell line. Both cell lines were initially screened for use in the following experiments and WEHI 164 cells were chosen for their higher sensitivity.
Cells are maintained in serum free medium Ultraculture (Biowhittaker) with the addition of 2 mM Glutamine. The assay is carried out in the same serum free medium.
In the cytotoxicity assay, a susceptible cell line (WEHI 164) is incubated in medium containing serial dilutions of TNF-α for a set time and the consequent cytotoxic activity, manifested as inhibition of cell growth and/or cell death, is evaluated by spectrophotometer measurements of vital dye uptake.
Peptide stock solutions are made in HBSS at the concentration of 1 mg/ml, sterilized by passage through a 0.20 μm×13 mm cellulose acetate filters (Corning). The solutions were used for no longer than 10 days. All the other dilutions needed for the test were prepared just before the assay in sterile manner using the medium Ultraculture.
WEHI 164 cells are taken from logarithmic growth and seeded in 96 well microtiter plates at the density of 2500 cells/well. The assay is performed 48 hours later, at a cell density of approximately 3000 cells/well. Cells are pre-incubated with serial dilutions of peptides for 30 minutes, then TNF-α is added to the wells and incubated for 16 hours at 37° C. Samples are repeated in triplicate.
Control wells for non treated cells contain medium only. A concentration curve of TNF-α is performed for every assay at concentrations ranging between 200 and 1 ng/ml. A control for full protection from TNF-α cytotoxicity is carried out by pre-incubating TNF-α with A2 antibody (Centocor, Malvern Pa.) for 30 minutes then adding it to the cells.
After 16 hour incubation, the vital dye AlamarBlue (Alamar Biosciences) is added in the amount equal to 10% final volume. The plates are returned to the incubator for 6-10 hours.
Absorbance is evaluated at 570 nm, subtracting the background absorbance measured at 595 nm in a BioRad microtiter plate reader.
Values are expressed as a percentage of cell survival, where the control samples (containing medium only) are referred to as 100%.

[1] = 25 μg/ml peptide, TNF 25 ng/ml, 16 h
[2] = 50 μg/ml peptide, TNF 25 ng/ml, 16 h
[3] = 100 μg/ml peptide, TNF 25 ng/ml, 16 h
[4] = 2.5 μg/ml peptide, TNF 5 ng/ml, 16 h
[5] = 25 μg/ml peptide, TNF 5 ng/ml, 16 h
[6] = 50 μg/ml peptide, TNF 25 pg/ml, 16 h
[7] = 100 μg/ml peptide, TNF 25 pg/ml, 16 h

Substance | % cell survival [2] [%] | % cell survival [6] [%] | % cell survival [7] [%] | further results
CARDNQAC (cysteine pairing not given here) [Peptide 509] | – | – | – | % cell survival (2.5 μg/ml peptide, TNF 25 ng/ml, 16 h): 21 ± 5%; % cell survival [1]: 28.4%
CEGAEC (cysteine pairing not given here) [Peptide 561] | 92 ± 20 | – | – | % cell survival [3]: 90 ± 10%
CIAVSYQTKC (cysteine pairing not given here) [Peptide 558] | 24 ± 8 | – | – | % cell survival [3]: 26 ± 7%
CPETPEGAEAKPC (cysteine pairing not given here) [Peptide 506] | – | – | – | % cell survival [4]: 68%; % cell survival [5]: 88.1%
CPQAEGQLC (cysteine pairing not given here) [Peptide 510] | – | 59.3 ± 1 | 60.4 ± 3 | –
CPRETPEGAEAKPC (cysteine pairing not given here) [Peptide 505] | – | – | – | % cell survival (100 μg/ml peptide, 30 min pre-incubation, then TNF-α 16 h, TNF concentration not printed (table 1)): 62.7 ± 4% and 32.5 ± 3%
CRIAVSYQTKVC (cysteine pairing not given here) [Peptide 557] | 70 ± 3 | – | – | % cell survival [3]: 65 ± 4%
CRRANA[dC] (cysteine pairing not given here) [Peptide 512] | – | 70.8 ± 6 | 65.6 ± 8 | –
CSYQTKC (cysteine pairing not given here) [Peptide 522] | – | – | – | % cell survival [4]: 81%; % cell survival [5]: 111%
CSYQTKVC (cysteine pairing not given here) [Peptide 521] | – | 56.51 ± 3 | 65.26 ± 4 | –
Pen-Thr-Pro-Glu-Gly-Ala-Glu-Ala-Pen ([Pen]TPEGAEA[Pen]; cysteine pairing not given here) [Peptide 562] | – | 25.2 ± 7 | 33.1 ± 7 | –
[Pen]E[Aib]E[Pen] (cysteine pairing not given here) [Peptide 556] | 71 ± 14 | – | – | % cell survival [1]: 69 ± 18%
